Experimental data reported in patent US20030124159A1, “Enhancing epidermal barrier development in skin” (Unilever Home & Personal Care USA, Division of Conopco, Inc, priority 2001, published 2003).

Columns and labels:
[1] = biological target: T1, human LXR (Homo sapiens, UniProt Q13133); assay: Reporter gene assay for activation of LXRα in transfected cos-7 cells; format: cell-based
T1 construct: expressed in transfected cells; host or cells: cos-7 cells (ECACC No. 87021302)
T1 sequence (Q13133 1-447): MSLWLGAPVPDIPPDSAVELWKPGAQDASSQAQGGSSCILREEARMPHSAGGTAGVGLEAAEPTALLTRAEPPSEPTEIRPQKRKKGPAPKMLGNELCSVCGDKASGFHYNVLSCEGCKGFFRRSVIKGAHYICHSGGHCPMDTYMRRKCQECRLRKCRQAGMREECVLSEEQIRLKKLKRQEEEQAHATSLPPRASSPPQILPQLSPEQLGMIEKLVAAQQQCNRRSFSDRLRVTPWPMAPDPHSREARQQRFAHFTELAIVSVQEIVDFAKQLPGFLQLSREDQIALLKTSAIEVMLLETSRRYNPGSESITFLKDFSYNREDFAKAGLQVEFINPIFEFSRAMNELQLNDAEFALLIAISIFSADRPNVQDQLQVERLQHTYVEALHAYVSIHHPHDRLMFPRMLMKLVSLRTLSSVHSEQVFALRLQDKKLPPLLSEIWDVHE
T1 sequence (P19793 1-462 partner): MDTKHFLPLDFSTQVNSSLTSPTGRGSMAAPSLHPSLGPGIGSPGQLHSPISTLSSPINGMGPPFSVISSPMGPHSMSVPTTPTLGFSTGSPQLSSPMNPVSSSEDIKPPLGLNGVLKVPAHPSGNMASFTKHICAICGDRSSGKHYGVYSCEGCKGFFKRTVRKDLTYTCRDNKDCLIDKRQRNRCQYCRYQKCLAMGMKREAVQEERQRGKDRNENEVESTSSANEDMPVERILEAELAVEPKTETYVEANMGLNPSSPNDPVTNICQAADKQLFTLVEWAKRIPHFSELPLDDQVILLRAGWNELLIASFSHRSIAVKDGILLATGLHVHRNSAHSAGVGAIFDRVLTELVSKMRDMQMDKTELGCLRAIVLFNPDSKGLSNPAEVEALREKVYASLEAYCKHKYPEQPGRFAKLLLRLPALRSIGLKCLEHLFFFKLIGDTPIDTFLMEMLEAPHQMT
Protocol: The activation of LXRα has been determined by a reporter gene assay based on that described by Kliewer et al (Nature 358 771-774 1992). Wherein cos-7 cells (ECACC No. 87021302) were seeded in 24-well plates at a density of 5×10^4 cells/well. Cells were grown overnight at 37° C./5% CO2 in DMEM containing 10% FCS, 2mM L-glutamine, […] penicillin and 100 µg/ml streptomycin.
A commerically available vector-pNFκB-Luc (Clontech) was used as the basic reporter plasmid as it contained the firefly luciferase gene downstream of the thymidine kinase promoter element. The NFκB consensus sequence was exised using restriction enzymes Mlu I and Bgl II and replaced with 3 direct repeats of the DNA response element sequence for the LXR nuclear receptor.
The response element was taken from Willy, P. et al (1995)(from a promoter region of the mouse mammary tumour virus), and repeated three times and encorporated restriction enzyme sites for Mlu I and Bgl II at either end to orientate the fragment during cloning (FIG. 5). This long oligonucleotide was synthesised, and an annealing primer designed to allow production of a double-stranded DNA template by Klenow fill-in.
This dsDNA template along with the vector pNFκB-Luc were then cut with both Mlu I and Bgl II restriction enzymes to allow cloning of the insert into this vector. ligation of the insert and vector occurred, followed by heat-shock transformation into a E. coli strain (JM109) followed by selection of recombinants on LB agar+Ampicillin (100 μg/ml). Mini liquid cultures of each colony generated were established and mini-plasmid preparations done (Qiagen protocols followed), furthered by restriction digests to check the size of the recombinant insert.
The pRSV/hRXRα was prepared via the method of Collingwood T N et al. 1997. J Biol Chem. 272: 13060-5. Transformation was performed as described above, and bulk plasmid preparations were performed from 100 ml overnight cultures. The selectable antibiotic for this vector was 100 μg/ml Ampicilin.
Transfection of cells was performed using Lipofectamine (Gibco Brl) as directed by the manufactures. Transfected cells were incubated for 5 h at 37° C./5% CO2 and serum then added to a final concentration of 2%. Cells were then incubated for a further 24 hours in the presence or absence of ligand. After 24 hours cell lysates were prepared and the level of firefly and renilla luciferase determined using the Dual luciferase assay system (Promega) and a MLX microtitre plate luminometer (Dynex).
Cells were washed with transfection media (DMEM) then transiently transfected with 4 plasmids: a LXR-responsive firefly luciferase reporter gene (pLXRE-luc); mammalian expression plasmids (pcDNA3.1/LXR, and pRSV/hRXRα) containing human LXR and RXRα cDNAs respectively and a control plasmid (pRLTK, Promega) which constitutatively expresses the renilla luciferase gene.
Transfected cells were incubated for 5 h at 37°C./5% CO2 and serum then added to a final concentration of 2%. Cells were then incubated for further 24 hours in the presence or absence of ligand. After 24 hours cell lysates were prepared and the level of firefly and renilla luciferase determined using the Dual luciferase assay system (Promega) and a MLX microtitre plate luminometer (Dynex). The level of firefly luciferase (normalised against the renilla luciferase control) provides a measure of reporter gene activity. This in turn reflects the level of LXR activation
The level of firefly luciferase (normalised against the renilla luciferase control) provides a measure of reporter gene activity which in turn reflects the level of LXRα activation.

[2] = test system: filaggrin; assay: RNA expression analysis of filaggrin in human epidermal cultures (Integriderm array); format: cell-based
Protocol: Commercially available human epidermal cultures were obtained from Skin Ethic™. The cultures were incubated in DMEM supplemented with guggul sterone (conctri) or vehicle alone (X % ethanol) for X days. Medium was replaced every day.
RNA was then extracted from cultures using the Qaigen RNEasy™ minikit according to manufacturers' instructions. The RNA was than DNAse treated and quantified by measuring OD at 260 & 280 nm with a spectrophotometer.
The level of gene expression was then determined using the Integridenm array from Research Genetics. RNA expression in guggul sterone treated cultures was compared to that in cultures treated with vehicle alone according to manufacturers' instructions broadly detailed below.
To prehybridise, each membrane was placed in a seperate roller bottle with the DNA spotted side facing inwards 5.0 ml MicroHyb (Research Genetics #HYB125.GF) was added to each bottle as well as the blocking agents;
20 ul mastermix was added to each tube containing RNA and oligo dT, and the reaction incubated at […] 42° C. for 90 mins. Bio-Spin 6 columns (Bio-Rad #732-6002) were then used to remove unincorporated nucleotides according to the manufacturer's instructions.
The cDNA was denatured by heating to 99° C. for 3 mins and chilled on ice for 2 mins. Hybridisation was carried out at 42° C. for 16-20 hrs in a rotating oven.
Membranes were washed 4× with ˜30 ml wash 1 solution (2× SSC, 1% SDS) at 50° C. for 20 mins/wash in rotating oven. This was followed by 2 further washes in ˜30 ml wash 2 solution (0.5× SSC, 1% SDS) at 50° C. for 15 mins/wash in a rotating oven.
Images of the membranes were obtained using a phosphorimager (Molecular Dynamics) using a pixel size of 100 u during the scanning. Images were converted to “TIF” files to allow analysis using Pathways™2.01 software (Research Genetics) and spot intensities compared to indicate changes in RNA expression. Each array contains 3 separate spots of filaggrin DNA and the average of all 3 spot intensities was calculated for each array. […]

## CC(C)=CCC[C@@H](C)[C@H]1CC[C@H]2[C@@H]3CC=C4C[C@@H](O)CC[C@]4(C)[C@H]3CC[C@]12C [Desmosterol, cholesta-5,24-dien-3β-ol]
[1]; 26 μM, cos-7 cells, 24 hours with ligand, firefly luciferase normalised against renilla
  Reporter Gene Activity Foloinduction relative to vertical Mean: 9.27

## CC(C)CC[C@@H](O)[C@@H](C)[C@H]1CC[C@H]2[C@@H]3CC=C4C[C@@H](O)CC[C@]4(C)[C@H]3CC[C@]12C [22R-hydroxycholesterol, reference compound]
[1]; 32 μM, positive control in desmosterol experiment
  Reporter Gene Activity Foloinduction relative to vertical Mean: 4.8
[1]; 35 μM, positive control in cis-guggal sterone experiment
  Reporter Gene Activity Foloinduction relative to vertical Mean: 6
[1]; 50 μM, positive control in cis-guggal sterone experiment
  Reporter Gene Activity Foloinduction relative to vertical Mean: 6.59

## C/C=C1\C(=O)C[C@H]2[C@@H]3CCC4=CC(=O)CC[C@]4(C)[C@H]3CC[C@]12C [Cis-guggal Sterone]
[2]; human epidermal cultures, average of 3 filaggrin spots, normalised against average intensity of all spots
  Spot intensity (filaggrin): 2885
[2]; human epidermal cultures, relative to vehicle
  Changes in the expression relative to vehicle (filaggrin): 1.54 (+/−0.17)
[2]; treatment of epidermal cultures
  filaggrin mRNA levels (in words): elevation of filaggrin mRNA levels
[1]; 16 μM, cos-7 cells, 24 hours with ligand, firefly luciferase normalised against renilla
  Reporter Gene Activity Foloinduction relative to vertical Mean: 3.9
[1]; 32 μM, cos-7 cells, 24 hours with ligand, firefly luciferase normalised against renilla
  Reporter Gene Activity Foloinduction relative to vertical Mean: 8
[1]; 64 μM, cos-7 cells, 24 hours with ligand, firefly luciferase normalised against renilla
  Reporter Gene Activity Foloinduction relative to vertical Mean: 17.3
